Experimental data reported in article PMC8072719, “Synthesis and Antiproliferative Activity of Triazoles Based on 2-Azabicycloalkanes” (Materials, 2021).
Where two headings read alike, the source gives them in different places.

Tests used:
BALB/3T3 clone A31 = assay: Growth inhibition assay (SRB assay), normal fibroblasts BALB/3T3 clone A31; type: cell-based, mouse; details: mean ± SD
Experimental: (§1) Three human cancer cell lines were used to evaluate the antiproliferative activity of the obtained compounds: melanoma cell line Hs294T, pancreatic tumor cell line MIA PaCa-2, and lung tumor cell line NCI-H1581. The normal mouse fibroblasts cell line (BALB/3T3 clone A31) was selected as reference. All these lines were purchased from the ATCC (American Type Culture Collection, Rockville, MD, USA). NCI-H1581 cells were grown in RPMI 1640 with GlutaMax medium (Gibco, Thermo Fisher Scientific, Leicestershire, UK) with 5% fetal bovine serum (FBS; HyClone, GE Healthcare, Logan, UT, USA). Hs294T and BALB/3T3 cells were grown in Dulbecco’s Modified Eagle Medium (DMEM; Gibco, Thermo Fisher Scientific, Leicestershire, UK) supplemented with 2 mM L-glutamine and 10% FBS (HyClone, GE Healthcare, Logan, UT, USA). MIA PaCa-2 cells were grown in DMEM (Gibco, Thermo Fisher Scientific, Leicestershire, UK) supplemented with 2 mM L-glutamine, 2.5% Horse Serum (Gibco, Thermo Fisher Scientific, Leicestershire, UK), and 10% FBS (HyClone, GE Healthcare, Logan, UT, USA). All culture media were supplemented with antibiotics: 100 U/mL penicillin (Polfa Tarchomin SA, Warsaw, Poland) and 100 µg/mL streptomycin (Sigma-Aldrich Chemie GmbH, Steinheim, Germany); cells were grown at 37 °C in a humid atmosphere with 5% CO2.
(§2) Twenty-four hours prior to the addition of the tested compounds, 2000 cells per well of Balb/3T3, MIA PaCa-2, and Hs294T cell lines and 2500 cells of NCI-H1581 cell line were seeded in 384-well plates (Greiner Bio-One, Kremsmünster, Austria) in an appropriate medium. The studied compounds were added to the cells at 8 different concentrations in a series of dilutions from 100 to 0.00001 µg/mL for 72 h. Cisplatin was applied as a reference compound (Teva Pharmaceuticals, Warsaw, Poland). DMSO (Sigma-Aldrich Chemie GmbH, Steinheim, Germany) was used as solvent control. The DMSO concentrations corresponded to the solvent concentrations in the tested compound solutions. Then, 30 µL per well of ice-cold 50% TCA (trichloroacetic acid, Avantor, Gliwice, Poland) was added to the cells. After one hour of incubation at room temperature (RT) cells were washed five times with water and stained with 0.4% SRB (sulforhodamine B, Sigma-Aldrich Chemie GmbH, Steinheim, Germany). Twenty-five microliters per well of 0.4% solution of SRB in 1% acetic acid (Avantor, Gliwice, Poland) was applied. After 0.5 h of incubation at RT, the unbound dye was washed out with 1% acetic acid. The bound dye in each well was dissolved in 70 µl of 10 mM TRIS (Tris base, Sigma-Aldrich, Chemie GmbH, Steinheim, Germany). A microplate reader (BioTek Synergy H4, Swindon, UK) with Gen5 software was used to read the absorbance at 540 nm. The results are presented as mean IC50 values (concentration of the compound that inhibits cell proliferation by 50%) ± standard deviation. Half-maximal inhibitory concentration (IC50) values were calculated using the Prolab-3 system based on Cheburator 0.4 [22]. Each experiment was performed in triplicate, and three independent repetitions were made for each experiment. Raw data and IC50 values were placed in the supplementary materials.

MIA PaCa-2 = assay: Growth inhibition assay (SRB assay), pancreatic tumor cell line MIA PaCa-2; type: cell-based, human; details: mean ± SD
Experimental: as §1, §2

NCI-H1581 = assay: Growth inhibition assay (SRB assay), lung tumor cell line NCI-H1581; type: cell-based, human; details: for SI (Selectivity Index): SI = IC50 for normal cell line BALB/3T3 / IC50 for NCI-H1581
Experimental: as §1, §2

Hs294T = assay: Growth inhibition assay (SRB assay), melanoma cell line Hs294T; type: cell-based, human; details: 72 h, mean ± SD
Experimental: as §1, §2

[1] = Mus musculus, BALB/3T3 clone A31, 72 h, normal cell line, read-out: IC50 BALB3T3
[2] = Mus musculus, BALB/3T3 clone A31, 72 h, supplement, read-out: IC50 BALB3T3 (raw data)
[3] = Homo sapiens, MIA PaCa-2, 72 h, read-out: IC50 MIA PaCa-2
[4] = Homo sapiens, MIA PaCa-2, supplement, 72 h, read-out: IC50 MIA PaCa-2 (raw data)
[5] = Homo sapiens, NCI-H1581, 72 h, 72 h, SRB, mean ± SD, read-out: IC50 NCI-H1581
[6] = Homo sapiens, NCI-H1581, 72 h, supplement, 72 h, SRB, mean ± SD, read-out: IC50 NCI-H1581 (raw data)
[7] = Homo sapiens, Hs 294T, read-out: IC50 Hs294T
[8] = Homo sapiens, Hs 294T, supplement, read-out: IC50 Hs294T (raw data)
[9] = 72 h, SRB, mean ± SD, read-out: IC50 NCI-H1581

| SMILES | IC50 (BALB/3T3 clone A31; [1]) | IC50 (BALB/3T3 clone A31; [2]) | IC50 (MIA PaCa-2; [3]) | IC50 (MIA PaCa-2; [4]) | IC50 (NCI-H1581; [5]) | IC50 (NCI-H1581; [6]) | IC50 (Hs294T; [7]) | IC50 (Hs294T; [8]) | SI (Selectivity Index) (NCI-H1581) | other results |
| --- | --- | --- | --- | --- | --- | --- | --- | --- | --- | --- |
| C[C@@H](c1ccccc1)N1C[C@H](n2cc(-c3cccc(-c4cn([C@H]5CN([C@@H](C)c6ccccc6)[C@H]6CC[C@@H]5C6)nn4)c3)nn2)[C@@H]2CC[C@H]1C2 [Compound 17, 1,3-Bis-(1-((1S,4R,5R)-2-((S)-1-phenylethyl)-2-azabicyclo[3.2.1]octan-4-yl)-1H-1,2,3-triazol-4-yl) benzene] | > 100 µM | > 100 µM | > 100 µM | > 100 µM | > 100 µM | > 100 µM | > 100 µM | > 100 µM |  | IC50 (BALB/3T3 clone A31; Mus musculus, BALB/3T3 clone A31, 72 h, supplement, read-out: IC50 BALB3T3 (non-rounded data)): > 100 µM; IC50 (MIA PaCa-2; Homo sapiens, MIA PaCa-2, supplement, 72 h, read-out: IC50 MIA PaCa-2 (non-rounded data)): > 100 µM; IC50 (NCI-H1581; Homo sapiens, NCI-H1581, 72 h, supplement, 72 h, SRB, mean ± SD, read-out: IC50 NCI-H1581 (non-rounded data)): > 100 µM; IC50 (Hs294T; Homo sapiens, Hs 294T, supplement, read-out: IC50 Hs294T (non-rounded data)): > 100 µM |
| C[C@@H](c1ccccc1)N1C[C@@H](n2cc(CN)nn2)[C@@H]2CC[C@H]1C2 [Compound 3, (1-((1S,4S,5R)-2-((S)-1-phenylethyl)-2-azabicyclo[3.2.1]octan-4-yl)-1H-1,2,3-triazol-4-yl)methanamine] | 94.4 ± 1.89 µM | 29.4 ± 0.59 µg/mL | 99.9 ± 4.46 µM | 31.1 ± 1.39 µg/mL | 11.3 ± 1.25 µM | 3.51 ± 0.39 µg/mL | 88.5 ± 9.41 µM | 27.6 ± 2.93 µg/mL | 8 |  |
| CC(c1ccccc1)N1CC(n2cc(C3C4CCC(C4)N3C(C)c3ccccc3)nn2)C2CCC1C2 (stereo not shown) [Compound 20] | 39.4 ± 4.86 µM | 19 ± 2.34 µg/mL | 63 ± 7.29 µM | 30.4 ± 3.51 µg/mL | 6.3 µM | 3.01 ± 0.66 µg/mL | 57 ± 13.6 µM | 27.5 ± 6.57 µg/mL | 6 | IC50 (NCI-H1581; [9]): 6.25 ± 1.37 µM |
| C[C@@H](c1ccccc1)N1C[C@H](n2cc(CN(Cc3cn([C@H]4CN([C@@H](C)c5ccccc5)[C@H]5CC[C@@H]4C5)nn3)Cc3cn([C@H]4CN([C@@H](C)c5ccccc5)[C@H]5CC[C@@H]4C5)nn3)nn2)[C@@H]2CC[C@H]1C2 [Compound 19, N,N,N-tris((1-((1S,4R,5R)-2-((S)-1-phenylethyl)-2-azabicyclo[3.2.1]octan-4-yl)-1H-1,2,3-triazol-4-yl)methyl) amine] | 27.7 ± 3.24 µM | 24.9 ± 2.92 µg/mL | 31.8 ± 2.31 µM | 28.7 ± 2.08 µg/mL | 3.27 ± 0.42 µM | 2.94 ± 0.38 µg/mL | 29.1 ± 1.36 µM | 26.2 ± 1.22 µg/mL |  |  |
| C[C@@H](c1ccccc1)N1C[C@@H](n2cc(COCc3cn([C@@H]4CN([C@@H](C)c5ccccc5)[C@H]5CC[C@@H]4C5)nn3)nn2)[C@@H]2CC[C@H]1C2 [Compound 12, (1S,1′S,4S,4′S,5R,5′R)-4,4′-(4,4′-(oxybis(methylene))bis(1H-1,2,3-triazole-4,1-diyl))bis(2-((S)-1-phenylethyl)-2-azabicyclo[3.2.1]octane)] | 44.4 ± 7.5 µM | 26.9 ± 4.55 µg/mL | 51.5 ± 1.6 µM | 31.2 ± 0.97 µg/mL | 6 ± 0.86 µM | 3.64 ± 0.52 µg/mL | 32.4 ± 7.83 µM | 19.7 ± 4.75 µg/mL | 7 |  |
| C[C@@H](c1ccccc1)N1C[C@H](n2cc(-c3cccc(N)c3)nn2)[C@@H]2CC[C@H]1C2 [Compound 7, 3-(1-((1S,4R,5R)-2-((S)-1-phenylethyl)-2-azabicyclo[3.2.1]octan-4-yl)-1H-1,2,3-triazol-4-yl)aniline] | 52.7 ± 6.16 µM | 19.7 ± 2.3 µg/mL | 77 ± 1.98 µM | 28.7 ± 0.74 µg/mL | 7.39 ± 1.15 µM | 2.76 ± 0.43 µg/mL | 65.9 ± 8.3 µM | 24.6 ± 3.1 µg/mL | 7 |  |
| N.N.[Cl][Pt][Cl] [Cisplatin, reference compound] |  |  |  |  |  |  |  |  | 0.3 | IC50 (BALB/3T3 clone A31; 72 h, normal cell line, read-out: IC50 BALB3T3): 1.83 ± 0.7 µM; IC50 BALB3T3 (raw data) (BALB/3T3 clone A31; supplement, 72 h): 0.55 ± 0.21 µg/mL; IC50 (MIA PaCa-2; 72 h, read-out: IC50 MIA PaCa-2): 12.6 ± 3.13 µM; IC50 MIA PaCa-2 (raw data) (MIA PaCa-2; supplement, 72 h): 3.79 ± 0.94 µg/mL; IC50 (NCI-H1581; 72 h, SRB, mean ± SD, listed as cisplatin, read-out: IC50 NCI-H1581): 7.3 µM; IC50 (NCI-H1581; [9]): 7.27 ± 2.83 µM; IC50 NCI-H1581 (raw data) (NCI-H1581; supplement, 72 h, SRB, mean ± SD): 2.18 ± 0.85 µg/mL; IC50 (Hs294T; read-out: IC50 Hs294T): 1.3 ± 0.5 µM; IC50 Hs294T (raw data) (Hs294T; supplement): 0.39 ± 0.15 µg/mL |
| C[C@@H](c1ccccc1)N1C[C@@H](n2cc(CCCc3cn([C@@H]4CN([C@@H](C)c5ccccc5)[C@H]5CC[C@@H]4C5)nn3)nn2)[C@@H]2CC[C@H]1C2 [Compound 10, 1,3-Bis-(1-((1S,4S,5R)-2-((S)-1-phenylethyl)-2-azabicyclo[3.2.1]octan-4-yl)-1H-1,2,3-triazol-4-yl) propane] | 11.8 ± 5.03 µM | 7.17 ± 3.04 µg/mL | 40.2 ± 1.6 µM | 24.3 ± 0.97 µg/mL | 4.2 ± 0.36 µM | 2.54 ± 0.22 µg/mL | 10.3 ± 3.39 µM | 6.26 ± 2.05 µg/mL | 3 |  |
| C[C@@H](c1ccccc1)N1C[C@H](n2cc(COCc3ccccc3)nn2)[C@@H]2CC[C@H]1C2 [Compound 9, (1S,4R,5R)-4-(4-((benzyloxy)methyl)-1H-1,2,3-triazol-1-yl)-2-((S)-1-phenylethyl)-2-azabicyclo[3.2.1]octane] | 50 ± 3.25 µM | 20.1 ± 1.31 µg/mL | 76.5 ± 4.37 µM | 30.8 ± 1.76 µg/mL | 8.52 ± 1.39 µM | 3.43 ± 0.56 µg/mL | 70.9 ± 5.86 µM | 28.5 ± 2.36 µg/mL | 6 |  |
